Experimental data as given in PMC3269786 (Neuron, 2012).
One block for each compound: values may come before it.

Key:
[1] = molecular target: SNAP-F279L-GHSR1a (UniProt Q92847); test: FRET or BRET
[2] = molecular target: SNAP-GHSR1a (growth hormone secretagogue receptor / ghrelin receptor with a SNAP-tag at the N-terminus) (UniProt Q92847); test: FRET or BRET
[3] = molecular target: SNAP-M213K-GHSR1a (UniProt Q92847); test: FRET or BRET
[4] = test system: rats; details: 6 day central infusion, ref Petersen et al., 2009; cited from earlier work
[5] = test system: mice (ghsr+/+, ghsr−/−, ghrelin+/+, ghrelin−/−); test: Food intake experiments in mice; assay type: in vivo, mouse; details: for food intake compared to vehicle: 0.5 mg/kg i.p.
[6] = molecular target: SNAP-GHSR1a (Homo sapiens, UniProt Q92847); test: Tr-FRET red-ghrelin binding assay in HEK293 cells expressing SNAP-GHSR1a
[7] = molecular target: GHSR1a and DRD2 co-expressed in SH-SY5Y cells (SH-GHSR1a) (Homo sapiens, UniProt P14416+Q92847); assay type: cell-based; details: quinpirole 10 µM; pretreatment 5 min
[8] = molecular target: GHSR1a + DRD2 (Homo sapiens, UniProt P14416+Q92847); assay type: cell-based
[9] = test system: humans; details: ref Korner et al., 2003; cited from earlier work
[10] = test system: primary cultures of hypothalamic neurons; test: Fluo-4 Ca2+ mobilization in primary hypothalamic neurons; assay type: cell-based, mouse; details: quinpirole 10 µM; ghrelin 100 nM after washing

GHSR1a + DRD2, sequence (Q92847 whole entry): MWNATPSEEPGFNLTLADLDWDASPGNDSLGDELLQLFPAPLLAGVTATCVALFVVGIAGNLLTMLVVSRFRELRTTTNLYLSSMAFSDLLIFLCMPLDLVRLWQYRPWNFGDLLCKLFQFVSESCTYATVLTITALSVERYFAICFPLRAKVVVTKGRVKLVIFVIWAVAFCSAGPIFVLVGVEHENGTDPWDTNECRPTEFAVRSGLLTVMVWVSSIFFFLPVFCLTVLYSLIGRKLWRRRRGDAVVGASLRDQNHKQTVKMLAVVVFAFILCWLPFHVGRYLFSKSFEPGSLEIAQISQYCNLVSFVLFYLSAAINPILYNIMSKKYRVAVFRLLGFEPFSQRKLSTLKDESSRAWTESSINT
GHSR1a + DRD2, sequence (P14416 whole entry): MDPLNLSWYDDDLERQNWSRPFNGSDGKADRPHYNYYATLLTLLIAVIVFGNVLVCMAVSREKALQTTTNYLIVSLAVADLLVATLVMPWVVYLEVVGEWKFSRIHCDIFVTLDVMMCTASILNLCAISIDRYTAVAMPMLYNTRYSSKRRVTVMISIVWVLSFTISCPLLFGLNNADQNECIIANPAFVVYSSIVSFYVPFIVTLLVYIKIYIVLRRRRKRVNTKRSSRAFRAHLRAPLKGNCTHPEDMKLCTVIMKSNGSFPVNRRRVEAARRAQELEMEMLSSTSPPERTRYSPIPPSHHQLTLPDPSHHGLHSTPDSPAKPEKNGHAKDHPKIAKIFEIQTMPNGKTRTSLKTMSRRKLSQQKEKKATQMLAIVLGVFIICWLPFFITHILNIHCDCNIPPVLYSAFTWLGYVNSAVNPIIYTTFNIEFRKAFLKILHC
HA-CLIP-DRD2, sequence (P14416 whole entry): as above
SNAP-GHSR1a (growth hormone secretagogue receptor / ghrelin receptor with a SNAP-tag at the N-terminus), sequence (Q92847 whole entry): as the sequence (Q92847 whole entry) above
SNAP-GHSR1a, sequence (Q92847 whole entry): as above
GHSR1a and DRD2 co-expressed in SH-SY5Y cells (SH-GHSR1a), sequence (Q92847 whole entry): as above
GHSR1a and DRD2 co-expressed in SH-SY5Y cells (SH-GHSR1a), sequence (P14416 whole entry): as the sequence (P14416 whole entry) above
SNAP-M213K-GHSR1a, sequence (Q92847 whole entry M213K, the tested form may be a part): as the sequence (Q92847 whole entry) above, with M213K counted along it
SNAP-F279L-GHSR1a, sequence (Q92847 whole entry F279L): as the sequence (Q92847 whole entry) above, with F279L counted along it

FRET50 [1]: 0.49 | FRET50 [2]: 0.086 | FRET50 [3]: 0.79
Compound: HA-CLIP-DRD2 (from UniProt P14416 1-443) (receptor)

Compound: [D-Arg1,D-Phe5,D-Trp7,9,Leu11]-substance P
food intake and weight gain [4]: modest reductions in food intake and weight gain

Compound: JMV2959
effect on cabergoline-induced suppression of food intake ([5]; ghsr+/+ mice, JMV2959 0.2 mg/kg i.p. 30 min before cabergoline 0.5 mg/kg): prevented | effect on food intake in cabergoline treated mice ([5]; ghsr−/− mice, JMV2959 0.2 mg/kg i.p. 30 min before cabergoline 0.5 mg/kg): unaffected

inhibition of red ghrelin binding [6]: ineffective
Compound: des-acyl ghrelin

Compound: CCN1CCC[C@H]1CNC(=O)c1c(O)c(Cl)cc(Cl)c1OC [raclopride]
effect on quinpirole-induced Ca2+ signal [7]: Attenuation of the Ca^2+ signal | effect on dopamine-induced Ca2+ signaling [8]: dose-dependently inhibited

Compound: Oc1cc2c(c(Cl)c1O)CCNCC2c1ccccc1 (stereo not drawn) [SKF81297]
effect of preincubation on ghrelin-induced Ca2+ response ([8]; 30 min preincubation, ghrelin 100 nM): fails to inhibit

agonist-induced increase of [Ca2+]i ([8]; cells co-expressing GHSR1a + DRD2): dose-dependent mobilization of Ca^2+
Compound: C=CCN1C[C@H](C(=O)N(CCCN(C)C)C(=O)NCC)C[C@@H]2c3cccc4[nH]cc(c34)C[C@H]21 [cabergoline]
food intake compared to vehicle ([5]; ghrelin+/+ and ghrelin−/− mice): significantly reduced food intake irrespective of genotype | food intake compared to vehicle ([5]; ghsr+/+ mice, within 2 h): markedly reduced | food intake compared to vehicle ([5]; ghsr−/− mice): unaffected | food intake ([5]; mice, cabergoline 0.5 mg/kg and 2 mg/kg): dose dependent suppression of food intake | body weight in treated humans [9]: weight loss

effect on dopamine-induced Ca2+ signaling [8]: blocked
Compound: NCCOB(c1ccccc1)c1ccccc1 [2-aminoethoxydiphenyl borate]

Compound: CN1CCc2cc(Cl)c(O)cc2[C@@H](c2ccccc2)C1 [SCH23390]
effect on dopamine-induced Ca2+ signaling [8]: ineffective

Compound: CCN1CCCC1CNC(=O)c1cc(S(N)(=O)=O)ccc1OC (stereo not drawn) [sulpiride]
effect on dopamine-induced Ca2+ signaling [8]: dose-dependently inhibited | effect on ghrelin-induced Ca2+ mobilization ([8]; GHSR1a+DRD2 cells, ghrelin 100 nM): partially inhibited

Compound: CCCCCCCC(=O)OC[C@H](NC(=O)[C@H](CO)NC(=O)CN)C(=O)N[C@@H](Cc1ccccc1)C(=O)N[C@@H](CC(C)C)C(=O)N[C@@H](CO)C(=O)N1CCC[C@H]1C(=O)N[C@@H](CCC(=O)O)C(=O)N[C@@H](Cc1c[nH]cn1)C(=O)N[C@@H](CCC(N)=O)C(=O)N[C@@H](CCCNC(=N)N)C(=O)N[C@H](C(=O)N[C@@H](CCC(N)=O)C(=O)N[C@@H](CCC(N)=O)C(=O)N[C@@H](CCCNC(=N)N)C(=O)N[C@@H](CCCCN)C(=O)N[C@@H](CCC(=O)O)C(=O)N[C@@H](CO)C(=O)N[C@@H](CCCCN)C(=O)N[C@@H](CCCCN)C(=O)N1CCC[C@H]1C(=O)N1CCC[C@H]1C(=O)N[C@@H](C)C(=O)N[C@@H](CCCCN)C(=O)N[C@@H](CC(C)C)C(=O)N[C@@H](CCC(N)=O)C(=O)N1CCC[C@H]1C(=O)N[C@@H](CCCNC(=N)N)C(=O)O)C(C)C [ghrelin]
Ca2+ response in primary hypothalamic neurons [10]: immediate Ca^2+ response
